Measured values from PubChem BioAssay AID190 (DTP/NCI, 2004).
Where “and” joins values, the source holds several entries; their conditions need not be identical. Equal values may be shown once. Toxic doses and inconclusive results are not listed. The calls were made as follows: active = survival T/C of 150% or more; inactive = T/C below 125% in these data.

System: AKR/Lw mice, AKR lymphoma ip, median survival T/C
Assay: NCI In Vivo Anticancer Drug Screen. Data for tumor model Lymphoma AKR (Transplanted) (intraperitoneal) in AKR/Lw mice
Conditions: endpoint: median survival time, higher = longer survival
Procedure: The antitumor activity of compounds was measured in mice bearing transplantable tumors. Survival or tumor size were measured and the results are expressed as the measurement made in the treated group (T) divided by the measurement made in the vehicle treated control group (C). The tumor model used in this assay is Lymphoma AKR (Transplanted) (intraperitoneal) in AKR/Lw mice

[1] = dose: 0.75 mg/kg/injection, schedule: Q04DX003 (ip), vehicle: saline
[2] = dose: 12.5 mg/kg/injection, schedule: Q01DX001 (ip), vehicle: saline

Measured: T/C

CC[C@H]1CN2CCc3cc(OC)c(OC)cc3[C@@H]2C[C@@H]1C[C@H]1NCCc2cc(OC)c(OC)cc21
inactive: dose: 0.5 mg/kg/injection, schedule: Q01DX009 (ip), vehicle: saline 100 % of control | [1] 87 % of control | dose: 1.0 mg/kg/injection, schedule: Q01DX009 (ip), vehicle: saline 96 % of control and 107 % of control | dose: 1.25 mg/kg/injection, schedule: Q01DX009 (ip), vehicle: saline 102 % of control | dose: 1.5 mg/kg/injection, schedule: Q04DX003 (ip), vehicle: saline 87 % of control | dose: 2.0 mg/kg/injection, schedule: Q01DX009 (ip), vehicle: saline 96 % of control | dose: 2.5 mg/kg/injection, schedule: Q01DX009 (ip), vehicle: saline with Tween-80 100 % of control | dose: 3.0 mg/kg/injection, schedule: Q01DX001 (ip), vehicle: saline 95 % of control | dose: 3.0 mg/kg/injection, schedule: Q04DX003 (ip), vehicle: saline 97 % of control | dose: 5.0 mg/kg/injection, schedule: Q01DX009 (ip), vehicle: saline with Tween-80 122 % of control | dose: 5.0 mg/kg/injection, schedule: Q04DX003 (ip), vehicle: saline 95 % of control | dose: 6.0 mg/kg/injection, schedule: Q01DX001 (ip), vehicle: saline 111 % of control | dose: 6.0 mg/kg/injection, schedule: Q04DX003 (ip), vehicle: saline 96 % of control and 118 % of control | dose: 6.2 mg/kg/injection, schedule: Q01DX001 (ip), vehicle: saline 105 % of control | dose: 6.2 mg/kg/injection, schedule: Q04DX003 (ip), vehicle: saline 96 % of control and 100 % of control and 124 % of control | dose: 6.25 mg/kg/injection, schedule: Q04DX003 (ip), vehicle: saline 116 % of control and 117 % of control | dose: 7.5 mg/kg/injection, schedule: Q01DX001 (ip), vehicle: saline 111 % of control | dose: 10.0 mg/kg/injection, schedule: Q01DX009 (ip), vehicle: saline with Tween-80 106 % of control | dose: 12.0 mg/kg/injection, schedule: Q01DX001 (ip), vehicle: saline 115 % of control | [2] 103 % of control and 113 % of control | dose: 15.0 mg/kg/injection, schedule: Q01DX001 (ip), vehicle: saline 117 % of control

COC(=O)c1ccc(NCC(C)(C)N)cc1
inactive: [2] 100 % of control | dose: 25.0 mg/kg/injection, schedule: Q01DX001 (ip), vehicle: saline 94 % of control | dose: 50.0 mg/kg/injection, schedule: Q01DX001 (ip), vehicle: saline 88 % of control

COC(=O)C(COS(=O)(=O)c1ccccc1)NC(=O)OCc1ccccc1 (stereo unspecified)
inactive: dose: 100.0 mg/kg/injection, schedule: Q01DX001 (ip), vehicle: saline 94 % of control | dose: 200.0 mg/kg/injection, schedule: Q01DX001 (ip), vehicle: saline 97 % of control | dose: 400.0 mg/kg/injection, schedule: Q01DX001 (ip), vehicle: saline 102 % of control

NC(=O)c1[nH]nc(C2OC(CO)C(O)C2O)c1O (stereo unspecified)
inactive: dose: 0.07 mg/kg/injection, schedule: Q01DX009 (ip), vehicle: saline 86 % of control | dose: 0.25 mg/kg/injection, schedule: Q04DX003 (ip), vehicle: saline 105 % of control | dose: 0.5 mg/kg/injection, schedule: Q04DX003 (ip), vehicle: saline 105 % of control | [1] 88 % of control | dose: 1.0 mg/kg/injection, schedule: Q04DX003 (ip), vehicle: saline 90 % of control | dose: 7.5 micrograms/kg/injection, schedule: Q01DX009 (ip), vehicle: saline 110 % of control | dose: 15.0 micrograms/kg/injection, schedule: Q01DX009 (ip), vehicle: saline 121 % of control | dose: 30.0 micrograms/kg/injection, schedule: Q01DX009 (ip), vehicle: saline 103 % of control | dose: 60.0 micrograms/kg/injection, schedule: Q01DX009 (ip), vehicle: saline 121 % of control
